# According to patent US20090018142A9, “Use of phosphatases to treat tumors overexpressing N-CoR” (priority 2006, published 2009):
# Entries after “also recorded” stand apart in the source; their conditions may differ. Like-named read-outs stand apart in the source and are kept apart here.
# Key:
# [1] = system: breast cancer line, MCF-7; assay: Inhibition of growth of breast cancer line MCF-7, single agents, 7 days; type: cell-based; conditions: for Inhibition of MCF-7 growth (in words): individual doses, 7 days (FIG. 6C); for Sensitivity of MCF-7 compared with U373 (in words): single agents, 7 days (FIG. 6C vs 6B)
# From the text: (§1) To determine whether there is tumor type specificity of the inhibitory properties of PP2A inhibitors, retinoic acid and Trichostatin A, we measured their inhibitory effects as single agents against the GBM line U373, a breast cancer line, MCF-7 (obtained from ATCC) and a kidney cancer cell line, UMRC (UMRC obtained by Dr. Zhuang, NINDS, NIH from the Intramural Research Support Program, SAIC, National Cancer Institute, Frederick Cancer Research and Development Center).
# [2] = system: kidney cancer cell line, UMRC; assay: Inhibition of growth of kidney cancer cell line UMRC, single agents, 7 days; type: cell-based; conditions: 7 days (FIG. 6A vs 6B)
# From the text: as §1
# [3] = system: GBM cell line U373; assay: cells; type: cell-based, human; conditions: for Inhibition of U373 growth as single agent (in words): individual treatment, 7 days; for Concentration range of activity against U373 (in words): single agent (FIG. 5A, 5B)
# Protocol: To identify novel therapeutic targets for the treatment of glioblastoma multiforme (GBM), cantharidin analogs were evaluated for their ability to inhibit growth of glioblastoma multiforme cells. Specifically, GBM cell line U373 was used in evaluations.
# The total number of cells is counted in the triplicate cultures at each dose and in controls after 7 days and the average number of cells and the standard deviation is determined.
# The amount of inhibition of GBM cell growth is expressed as the proportion of the number of cells in the experimental dishes compared to the number of cells in control dishes containing only the drug vehicle and culture medium. The average percent of control is plotted and bracketed by one standard deviation calculated from the triplicate measurements.
# [4] = system: PP1; conditions: cited from earlier work
# [5] = system: PP2A; conditions: cited from earlier work
# [6] = cited from earlier work; for Urinary tract toxicity (in words): in vivo
# [7] = system: primary hepatoma; conditions: cited from earlier work
# [8] = system: white blood cell production; conditions: patients and mice; cited from earlier work
# [9] = system: GBM cell line U343 MG-A; assay: Growth of GBM cell line U343 MG-A, cell counts over 16 days; type: cell-based, human; conditions: 50 μM retinoic acid and/or 10 nM okadaic acid
# Protocol: Finally, the GBM cell line U343 MG-A was treated with 50 μM of retinoic acid (RA) and/or 10 nM of okadaic acid (OA), a protein phosphatase-1 inhibitor.
# Three cultures for each of four treatments were grown for 16 days with cell counts obtained at baseline and for each of the eight even numbered days. Log transformations were applied to the cell counts, and repeated measures of analysis of variance model used to evaluate the treatment differences over time. Pair wise treatment comparisons used Sidak's statistic to account for multiple testing.
# [10] = for weeks; cited from earlier work
# [11] = system: brain tumor stem cells (BTSC) isolated from GBM; assay: Differentiation of cultured brain tumor stem cells treated with CNTF (GFAP expression, N-CoR localization); type: cell-based
# Protocol: (Hughes et al. (1988)) The BTSCs cells were then assessed for GFAP expression along with subcellular N—CoR localization.
# [12] = Homo sapiens, U373 MG, 168 h, read-out: IC50, concentration that inhibited brain tumor cell proliferation by 50%
# [13] = U373, 7 days exposure, estimated from graphic plots (FIG. 3), read-out: IC50, concentration that inhibited brain tumor cell proliferation by 50%
molecule,measurement,setting,value
"CC1=C(/C=C/C(C)=C/C=C/C(C)=C/C(=O)O)C(C)(C)CCC1 [ATRA, all-trans retinoic acid]",Inhibition of MCF-7 growth (in words),[1],showed an inhibition in growth
same,Sensitivity of MCF-7 compared with U373 (in words),[1],as sensitive as U373
same,Sensitivity of UMRC compared with U373 (in words),[2],less sensitive
same,IC50,"[3]; Homo sapiens, U373 MG, 168 h, U373, 7 days (FIG. 4A), read-out: IC50 of ATRA alone",> 50 µM
same,activity at 25 µM,"[3]; Homo sapiens, U373 MG, U373, ATRA 25 uM alone, read-out: Percent of Control, Observed",77%
same,Inhibition of U373 growth as single agent (in words),[3]; U373,modest inhibition of growth
"CC1=C(/C=C/C(C)=C/C=C/C(C)=C\C(=O)O)C(C)(C)CCC1 [Cis-RA, 13-cis retinoic acid]","Percent of Control, Observed","[3]; U373, Cis-RA 50 μM alone",93.3 +/− 2.2% of Control
same,Inhibition of U373 growth as single agent (in words),[3]; U373,modest inhibition of growth
"CC(/C=C/C(=O)NO)=C\[C@@H](C)C(=O)c1ccc(N(C)C)cc1 [TSA, Trichostatin A]",Inhibition of MCF-7 growth (in words),[1],showed an inhibition in growth
same,Sensitivity of MCF-7 compared with U373 (in words),[1],as sensitive as U373
same,Sensitivity of UMRC compared with U373 (in words),[2],less sensitive
same,"Percent of Control, Observed","[3]; U373, TSA 0.033 μM (0.01 μg/ml) alone",71.6 +/− 0.4% of Control
same,Inhibition of U373 growth as single agent (in words),[3]; U373,dose dependent activity
same,Concentration range of activity against U373 (in words),[3]; U373,active at nM concentrations
C[C@@]12C(=O)OC(=O)[C@]1(C)[C@H]1CC[C@@H]2O1 [cantharidin],Inhibition of PP1 activity (in words),[4],to some extent
same,Inhibition of PP2A activity (in words),[5],inhibit the activity of PP2A
same,Urinary tract toxicity (in words),[6],toxic to the urinary tract
CN1CCN(C(=O)C2C(C(=O)O)[C@H]3CC[C@@H]2O3)CC1 (stereo partly drawn) [compound LB-1],IC50,[3]; [12],3 µM
same,activity at 1 µM,"[3]; Homo sapiens, U373 MG, read-out: Percent of Control, Observed, U373, LB-1 1 uM alone (Table 1)",78%
same,"Percent of Control, Observed","[3]; U373, LB-1 1 μM alone (Table 3)",97.9 +/− 1.0% of Control
same,"Percent of Control, Observed","[3]; U373, LB-1 5 μM alone",52.5 +/− 2.9% of Control
same,Inhibition of U373 growth as single agent (in words),[3]; U373,modest inhibition of growth
O=C1SC(=O)[C@H]2[C@@H]1[C@@H]1CC[C@H]2O1 [endothal thioanhydride],Sensitivity of MCF-7 compared with U373 (in words),[1],as sensitive as U373
same,Sensitivity of UMRC compared with U373 (in words),[2],less sensitive
same,Inhibition of PP1 activity (in words),[4],to some extent
same,Inhibition of PP2A activity (in words),[5],inhibit the activity of PP2A
same,Liver toxicity (in words),[6]; mice,toxic to the liver of mice
same,IC50,[3]; [13],2.5 µM
same,Inhibition of U373 growth as single agent (in words),[3]; U373,most potent inhibitor of GBMs in vitro; also recorded: greatest inhibition of growth
O=C(O)C1C2CCC(O2)C1C(=O)O (stereo not drawn) [endothal],Inhibition of MCF-7 growth (in words),[1],showed an inhibition in growth
same,Sensitivity of MCF-7 compared with U373 (in words),[1],as sensitive as U373
same,Sensitivity of UMRC compared with U373 (in words),[2],less sensitive
same,Inhibition of PP1 activity (in words),[4],to some extent
same,Inhibition of PP2A activity (in words),[5],inhibit the activity of PP2A
same,IC50,[3]; [12],15 µM
same,activity at 1 µM,"[3]; Homo sapiens, U373 MG, read-out: Percent of Control, U373, endothal 1 μM, 13-cis retinoic acid none",100%
same,activity at 5 µM,"[3]; Homo sapiens, U373 MG, read-out: Percent of Control, U373, endothal 5 μM, 13-cis retinoic acid none",96%
same,activity at 10 µM,"[3]; Homo sapiens, U373 MG, read-out: Percent of Control, U373, endothal 10 μM, 13-cis retinoic acid none",76%
same,"Percent of Control, Observed","[3]; U373, END 10 uM alone",65%
same,Percent of Control,"[3]; U373, endothal 10 μM, 13-cis retinoic acid none",73%
same,Inhibition of U373 growth as single agent (in words),[3]; U373,modest inhibition of growth
O=C1OC(=O)[C@H]2[C@@H]1[C@H]1CC[C@H]2O1 [norcantharidin],Sensitivity of MCF-7 compared with U373 (in words),[1],as sensitive as U373
same,Sensitivity of UMRC compared with U373 (in words),[2],less sensitive
same,1-year survival,"[7]; 244 patients with primary hepatoma, historical controls 17%",30%
same,Life span of patients with primary hepatoma,"[7]; 244 patients, historical controls on standard chemotherapy 4.7 months",11.1 months
same,Relative toxicity in vivo (in words),"[6]; compared among endothal thioanhydride, norcantharidin, endothal",falling in between
same,Urinary tract toxicity (in words),[6],little or no urinary tract toxicity
same,White blood cell production (in words),[8],stimulates white blood cell production
same,IC50,[3]; [13],12 µM
C=C1[C@@H](O)[C@@H]2O[C@]3(CC[C@H](/C=C/[C@@H](C)[C@@H]4CC(C)=C[C@@]5(O[C@H](C[C@@](C)(O)C(=O)O)CC[C@H]5O)O4)O3)CC[C@H]2O[C@@H]1[C@@H](O)C[C@H](C)[C@H]1O[C@@]2(CCCCO2)CC[C@H]1C [okadaic acid],Course of cell counts over time (in words),[9]; 16 days,monotonically increased
same,Effect on cell growth (in words),[9]; 16 days (FIG. 2C),modest effect on cell growth
CCCC(CCC)C(=O)O [valproic acid],Serum concentration tolerated in humans,[10],~1000 µM
same,Inhibition of U373 growth as single agent (in words),[3]; U373,dose dependent activity
same,Concentration range of activity against U373 (in words),[3]; U373,in the mM range
"CNTF: ciliary neurotrophic factor, agent shown to induce astrocytic differentiation of neural stem cells in vitro (protein, UniProt P26441 1-200, looked up) Ciliary neurotrophic factor: MAFTEHSPLTPHRRDLCSRSIWLARKIRSDLTALTESYVKHQGLNKNINLDSADGMPVASTDQWSELTEAERLQENLQAYRTFHVLLARLLEDQQVHFTPTEGDFHQAIHTLLLQVAAFAYQIEELMILLEYKIPRNEADGMPINVGDGGLFEKKLWGLKVLQELSQWTVRSIHDLRFISSHQTGIPARGSHYIANNKKM",GFAP expression in BTSC (in words),"[11]; BTSC cultured with CNTF, 2-DGE and LCMS (FIG. 2A)",began to express GFAP
same,Subcellular localization of N-CoR in BTSC (in words),[11]; Western blot of cytoplasmic fraction of CNTF-treated BTSC (FIG. 2B),translocation of N—CoR to the cytoplasm
same,Time of peak cytoplasmic N-CoR and GFAP expression,[11]; following CNTF stimulation,7 days
